Reference: patent publication US20210212946A1, “SOLID SELF-EMULSIFYING CANNABINOID COMPOSITIONS” (ICDPHARMA LTD., priority 2018, published 2021)

How the values were obtained:
[1] = Oral absorption of CBD in rats; assay type: in vivo, Sprague drawly rats; details: gavage to the stomach, 12 mg/kg, plasma CBD by LC-MS
Description: A tablet of composition of 5A was diluted with water of about 40° C. before administration to the rats to obtain CBD concentration of 12 mg/ml and to obtain the cannabinoid oil-in-water emulsion. The emulsion was administered in gavage to the stomach of Sprague drawly rats weighing 220 gr to 250 gr at 12 mg/kg. Blood sample was obtained at various time points after the oral administration and plasma separated. The CBD concentration in the plasma was tested by LC-MS and the area under the curve calculate. Group one was administered with 12 mg/kg of pure CBD dissolved in “solvent” propylene glycol:ethanol 1:1 solution. Group two received the test formulation.

human lung tumors = human lung tumors implanted into rats and mice; cited from earlier work

Structure (SMILES) | Cmax ([1]; Sprague-Dawley, rat, po) [ng/mL] | AUC (Area Under the Curve of CBD in rats' plasma) [1] [ng/mL/h] | reduction in tumor mass and volume (human lung tumors) [%] | reduction of cancerous lesions in the lungs (human lung tumors)
C=C(C)[C@@H]1CCC(C)=C[C@H]1c1c(O)cc(CCCCC)cc1O [CBD, cannabidiol] | 38 | 90 ± 12 | – | –
CCCCCc1cc(O)c2c(c1)OC(C)(C)[C@@H]1CCC(C)=C[C@@H]21 [THC, tetrahydrocannabinol] | – | – | ≤ 50 | around 60%
